Values after ≈ are worked out from the molar mass of the structure shown.
Assay: Solubility of active compound (I)
Format: physicochemical
Procedure: The active compound (I) has a relatively poor water solubility (about 7 mg/l). As a result of this, difficulties with the oral bioavailability and an increased biological variability of the absorption rate can result.
An alternative process is the amorphization of the active compound. […] Amorphization of the active compound by means of the fusion method is also disadvantageous because of the high melting point of the active compound (about 230° C.), since an undesirably high proportion of breakdown components is formed during the preparation.

- solubility in pharmaceutically acceptable solvents (solvents such as ethanol or acetone): poorly soluble
- solubility (water): ~7 µg/mL (≈ 16.1 µM)
Compound: O=C(NC[C@H]1CN(c2ccc(N3CCOCC3=O)cc2)C(=O)O1)c1ccc(Cl)s1 [active compound (I), 5-chloro-N-({(5S)-2-oxo-3-[4-(3-oxo-4-morpholinyl)-phenyl]-1,3-oxazolidin-5-yl}-methyl)-2-thiophenecarboxamide]

Source: US9415053B2, “Solid, orally administrable pharmaceutical composition” (Bayer Intellectual Property GmbH, priority 2003, dated 2016)
